Test results as given in ChEMBL document CHEMBL1221220, “Transport and signaling via the amino acid binding site of the yeast Gap1 amino acid transceptor” (Nat Chem Biol, 2009).
Residue numbers refer to the chain shown, from its start. Activity calls are given as the source filed them.

Columns and labels:
[1] = system: T1, General amino-acid permease GAP1 (Saccharomyces cerevisiae), P19145 [A393C]; test: Induction of yeast Gap1 A393C mutant-mediated amino acid uptake at 2 mM in presence of 10 mM MTSEA treated before compound addition
T1 sequence (whole entry): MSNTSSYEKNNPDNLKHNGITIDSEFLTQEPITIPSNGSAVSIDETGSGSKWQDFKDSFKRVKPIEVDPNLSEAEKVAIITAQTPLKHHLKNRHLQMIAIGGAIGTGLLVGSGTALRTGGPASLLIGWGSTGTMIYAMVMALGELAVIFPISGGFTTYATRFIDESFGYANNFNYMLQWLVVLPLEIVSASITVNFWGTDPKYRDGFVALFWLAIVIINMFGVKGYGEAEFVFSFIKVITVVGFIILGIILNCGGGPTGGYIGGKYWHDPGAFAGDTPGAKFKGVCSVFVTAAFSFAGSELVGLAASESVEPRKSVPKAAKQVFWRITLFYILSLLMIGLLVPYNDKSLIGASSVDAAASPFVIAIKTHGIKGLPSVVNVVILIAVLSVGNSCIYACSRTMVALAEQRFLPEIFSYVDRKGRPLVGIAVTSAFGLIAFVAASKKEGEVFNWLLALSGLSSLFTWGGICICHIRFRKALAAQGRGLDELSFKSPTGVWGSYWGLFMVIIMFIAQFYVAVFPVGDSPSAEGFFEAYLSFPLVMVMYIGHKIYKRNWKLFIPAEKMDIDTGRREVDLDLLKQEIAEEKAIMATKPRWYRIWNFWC

[2] = system: T2, General amino-acid permease GAP1 (Saccharomyces cerevisiae), P19145 [S398C]; test: Induction of yeast Gap1 S398C mutant-mediated trehalose activation at 2 mM in presence of 10 mM MTSEA treated before compound addition
T2 sequence (whole entry): T1 sequence (whole entry) with C393A, S398C

[3] = system: T3, General amino-acid permease GAP1 (Saccharomyces cerevisiae), P19145 [L387C]; test: Induction of yeast Gap1 L387C mutant-mediated amino acid uptake at 2 mM in presence of 10 mM MTSEA treated before compound addition
T3 sequence (whole entry): T1 sequence (whole entry) with L387C, C393A

[4] = system: T4, General amino-acid permease GAP1 (Saccharomyces cerevisiae), P19145 [T400C]; test: Induction of yeast Gap1 T400C mutant-mediated trehalose activation at 2 mM in presence of 10 mM MTSEA treated before compound addition
T4 sequence (whole entry): T1 sequence (whole entry) with C393A, T400C

NC(=O)NCCC[C@H](N)C(=O)O
active: Activity [1] | inhibition [2] | Activity [3] | inhibition [4]
